Source: patent publication US20260144769A1, “4-PHENYLBUTYRATE RESTORED GABA UPTAKE AND REDUCED SEIZURES IN SLC6A1 VARIANT-MEDIATED DISORDERS” (Vanderbilt University, priority 2022, published 2026)

How the values were obtained:
[1] = molecular target: T1, GAT-1 A288V (Rattus norvegicus, UniProt P23978, A288V); assay: 3H GABA uptake, HEK293T, mutant cDNA alone ("homozygous"); type: cell-based; settings: PBA 2 mM, 24 hrs
T1 construct: The coding region of rGAT-1 was inserted into pEYFP-C1 (Clontech, Palo Alto, CA); expressed in transfected cells; host or cells: HEK293T cells (A4); astrocytes from corrected human iPSCs (A24)
Description: (§1) GABA uptake activity was measured by the high-throughput 3H radio-labeling GABA uptake on a liquid scintillator with QuantaSmart. […] HEK293T cells were transfected with the wildtype or the mutant GAT-1^YFP cDNAs alone for 48 hr. […] HEK293T cells were transfected with the wildtype GAT-1^YFP alone or in mixture of the wildtype or the mutant cDNAs for 48 hr. In the mixed condition, the ratio of the wildtype GAT-1 with pcDNA or the mutant cDNAs are 1:1 with the total cDNA amount of 0.5 μg. […] Both wt and the mutant were normalized to its own DMSO treated conditions. 966 stands for the wildtype treated with CI-966 (50 μM) while 711 stands for NNC-711 (35 μM). (N=4-7 different transfections. In FIG. 4A and FIG. 4B, *P<0.05, **P<0.01, ***p<0.001 vs. wt 0. In FIG. C and FIG. 4D, *P<0.05, **P<0.01, ***p<0.001 vs. its own DMSO treated. In FIG. 4C, ns stands for no significance. One-way analysis of variance (ANOVA) and Newman-Keuls test. Values were expressed as mean±S.E.M.
(§2) The plasmid cDNA encoding enhanced yellow fluorescent protein (EYFP)-tagged rat GAT-1 has been previously described. The coding region of rGAT-1 was inserted into pEYFP-C1 (Clontech, Palo Alto, CA). QuikChange Site-directed Mutagenesis kit was utilized to introduce the GAT-1 variants into a wildtype GAT-1 plasmid. The product was then amplified via polymerase chain reaction, transformed using DH5a competent cells, and plated. A clone was chosen and grown overnight. All the GAT-1 variants were confirmed by DNA sequencing. Both the wildtype and the variant cDNAs were prepared with Qiagen Maxiprep kit.
(§3) Human embryonic kidney cells were cultured as monolayers in 100 mm^2 dishes. Cells were cultured in Dulbecco's Modified Eagle's Medium supplemented with 10% FBS and 1% penicillin/streptomycin in 37° C. in 5% CO2/95% air. Cells were maintained in culture medium until appropriate confluency for experimentation.
(§4) Briefly, cells were cultured in […] dishes for 3 days before the GABA uptake experiment in DMEM with 10% fetal bovine serum and 1% penicillin/streptomycin. The cells were then transfected with equal amounts of the wildtype or the mutant GAT-1 cDNAs (1 μg) for each condition at 24 hrs or 48 hrs after plating. GABA uptake assay was carried out 48 hrs after transfection. The cells were incubated with preincubation solution for 15 min and then incubated with preincubation solution containing 1 μci/mL 3H GABA and 10 μM unlabeled GABA for 30 min at room temperature. After washing, the cells were lysed with 0.25 N NaOH for 1 hr. Glacial acetic acid was added, and lysates were then determined on a liquid scintillator with QuantaSmart. The flux of GABA (pmol/μg/min) was averaged with at least triplets for each condition at each transfection. The average counting was taken as n=1. The untransfected condition was taken as a baseline that was subtracted from both the wildtype and the mutant conditions. The pmol/μg/min in the mutant was then normalized to the wildtype from each experiment, which was arbitrarily taken as 100%. The protocols for GABA reuptake assay in cultured mouse astrocytes, neuron or iPSC derived cells were modified from the GABA uptake protocol on HEK 293T cells. GAT-1 inhibitors CL-966 and NNC-711 were applied each time to make sure the radioactive counts were specific.
(§5) The working solution was stored at 4° C.

[2] = molecular target: T2, GAT-1 D410E (Rattus norvegicus, UniProt P23978, D410E); assay: as above; type: cell-based; settings: PBA 2 mM, 24 hrs
T2 construct: The coding region of rGAT-1 was inserted into pEYFP-C1 (Clontech, Palo Alto, CA); expressed in transfected cells; host or cells: HEK293T cells (A7); astrocytes from corrected human iPSCs (A27)
Description: as §1, §2, §3, §4, §5

[3] = molecular target: T3, GAT-1 G326R (Rattus norvegicus, UniProt P23978, G362R); assay: as above; type: cell-based; settings: PBA 2 mM, 24 hrs
T3 construct: The coding region of rGAT-1 was inserted into pEYFP-C1 (Clontech, Palo Alto, CA); expressed in transfected cells; host or cells: HEK293T cells
Description: as §1, §2, §3, §4, §5

[4] = molecular target: T4, GAT-1 S295L (Rattus norvegicus, UniProt P23978, S295L); assay: as above; type: cell-based; settings: PBA 2 mM, 24 hrs
T4 construct: The coding region of rGAT-1 was inserted into pEYFP-C1 (Clontech, Palo Alto, CA); expressed in transfected cells; host or cells: HEK293T cells (A5); astrocytes from corrected human iPSCs (A25)
Description: as §1, §2, §3, §4, §5

[5] = molecular target: T5, GAT-1 V125M (Rattus norvegicus, UniProt P23978, V125M); assay: as above; type: cell-based; settings: PBA 2 mM, 24 hrs
T5 construct: The coding region of rGAT-1 was inserted into pEYFP-C1 (Clontech, Palo Alto, CA); expressed in transfected cells; host or cells: HEK293T cells (A3); astrocytes from corrected human iPSCs (A23)
Description: as §1, §2, §3, §4, §5

[6] = molecular target: T6, GAT-1 W495X (Rattus norvegicus, UniProt P23978); assay: as above; type: cell-based; settings: PBA 2 mM, 24 hrs
T6 construct: expressed in transfected cells; host or cells: HEK293T cells
Description: as §1, §2, §3, §4, §5

[7] = test system: GAT-1; assay: GAT-1 protein expression in brain regions of SLC6A1^+/A288V heterozygous mice; type: in vivo, mouse; settings: A288V het; cerebellum; PBA 100 mg/kg, 7 days
Text: FIGS. 8C-D show integrated density values (IDVs) for total GAT-1 from wild-type and het KI were normalized to the Na^+/K^+ ATPase or anti-glyceraldehyde-3-phosphate dehydrogenase (GAPDH) loading control (LC) in each specific brain region and plotted. N=4 from 4 pairs of mice. […] The vehicle treated in each brain region was taken as 1. N=4 from 4 pairs of mice for FIG. 8C, FIG. 8D, FIG. 8G and FIG. 8H, Values were expressed as mean±S.E.M. One way ANOVA or unpaired t test.
as §5
Data were expressed as mean±SEM. Proteins were quantified by Odyssey software and data were normalized to loading controls and then to the wildtype subunit protein, which was arbitrarily taken as 1 in each experiment. Fluorescence intensities from confocal microscopy experiments were determined using MetaMorph imaging software, and the measurements were carried out in ImageJ. For statistical significance, one-way or two-way analysis of variance (ANOVA) with post hoc Dunnett or Newman-Keuls test were used. In some cases, unpaired t-test or one sample t-test was performed (GraphPad Prism, La Jolla, CA), and statistical significance was taken as p<0.05.

[8] = test system: SLC6A1 gene expression; assay: RT-qPCR of SLC6A1 gene expression, mouse whole-brain tissue; type: in vivo; settings: wild-type and SLC6A1^+/S295L mice; PBA for 7 days; whole-brain RNA
Text: FIGS. 14A-B show RT-qPCR data from a cohort of nine wild-type mice (FIG. 14A) and seven SLC6A1^+/S295L mice (FIG. 14B). […] Total RNA was extracted from mouse whole-brain tissue.

GABA uptake normalized to its own DMSO treated condition [1]: 1.22±0.063 | GABA uptake normalized to its own DMSO treated condition [2]: 1.236±0.074 | GABA uptake normalized to its own DMSO treated condition [3]: 1.185±0.065 | GABA uptake normalized to its own DMSO treated condition [4]: 1.386±0.058 | GABA uptake normalized to its own DMSO treated condition [5]: 1.378±0.056 | GABA uptake normalized to its own DMSO treated condition [6]: 1.323±0.054
Compound: O=C(O)CCCc1ccccc1 [PBA, 4-phenylbutyric acid]
GAT-1 expression vs. same brain region of vehicle treated mice taken as 1 [7]: 1.045±0.028 | SLC6A1 gene expression, treated vs. untreated mice [8]: no significant difference
